In patent US10206394B2, “Herbicidal compounds” (Syngenta Participations AG, priority 2014, dated 2019):
Like-named read-outs stand apart in the source and are kept apart here.

Experiments:
Test in all cases: Glasshouse assay for herbicidal activity (pre- and post-emergence), percentage phytotoxicity
Type in all cases: in vivo
[1] = tested on: Echinochloa crus-galli (ECHCG); conditions: Echinochloa crus-galli
Summary of the method: (§1)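 Damage was rated visually as percent phytotoxicity, 100% meaning total kill, 20 days after pre-emergence application (made one day post-sowing) or 15 days after post-emergence application (made about 12 days post-sowing). Plants were grown under 16 h light, 65% humidity, warm species 24/18° C, cool 20/16° C.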

Lolium perenne (LOLPE) = conditions: Lolium perenne
Summary of the method: as §1

Avena fatua (AVEFA) = conditions: Avena fatua
Summary of the method: as §1

[2] = tested on: Alopecurus myosuroides (ALOMY); conditions: Alopecurus myosuroides
Summary of the method: as §1

Structure (SMILES): Cc1cc(-c2ncc(Cl)cn2)cc(C)c1C1C(=O)CC(CC(=O)NCc2cccs2)C1=O (stereo not shown) [Compound B353]
- pest or weed control at 250 g/ha ([1]; post-emergence, 360 h, Rate 250 g/ha, post-emergence, visual assessment 15 DAA, 100%=total damage, 0%=no damage, read-out: Post-emergence herbicidal activity (percentage phytotoxicity) ECHCG POST): 100%
- pest or weed control at 250 g/ha ([1]; pre-emergence, 480 h, Rate 250 g/ha, pre-emergence, visual assessment 20 DAA, 100%=total damage, 0%=no damage, read-out: Pre-emergence herbicidal activity (percentage phytotoxicity) ECHCG PRE): 100%
- pest or weed control at 250 g/ha (Lolium perenne (LOLPE); post-emergence, 360 h, Rate 250 g/ha, post-emergence, visual assessment 15 DAA, 100%=total damage, 0%=no damage, read-out: Post-emergence herbicidal activity (percentage phytotoxicity) LOLPE POST): 100%
- pest or weed control at 250 g/ha (Lolium perenne (LOLPE); pre-emergence, 480 h, Rate 250 g/ha, pre-emergence, visual assessment 20 DAA, 100%=total damage, 0%=no damage, read-out: Pre-emergence herbicidal activity (percentage phytotoxicity) LOLPE PRE): 90%
- pest or weed control at 250 g/ha (Avena fatua (AVEFA); post-emergence, 360 h, Rate 250 g/ha, post-emergence, visual assessment 15 DAA, 100%=total damage, 0%=no damage, read-out: Post-emergence herbicidal activity (percentage phytotoxicity) AVEFA POST): 100%
- pest or weed control at 250 g/ha (Avena fatua (AVEFA); pre-emergence, 480 h, Rate 250 g/ha, pre-emergence, visual assessment 20 DAA, 100%=total damage, 0%=no damage, read-out: Pre-emergence herbicidal activity (percentage phytotoxicity) AVEFA PRE): 90%
- pest or weed control at 250 g/ha ([2]; post-emergence, 360 h, Rate 250 g/ha, post-emergence, visual assessment 15 DAA, 100%=total damage, 0%=no damage, read-out: Post-emergence herbicidal activity (percentage phytotoxicity) ALOMY POST): 90%
- pest or weed control at 250 g/ha ([2]; pre-emergence, 480 h, Rate 250 g/ha, pre-emergence, visual assessment 20 DAA, 100%=total damage, 0%=no damage, read-out: Pre-emergence herbicidal activity (percentage phytotoxicity) ALOMY PRE): 80%

Structure (SMILES): C=CCNC(=O)CC1CC(=O)C(c2c(C)cc(C)cc2C)C1=O (stereo not shown) [Compound A175]
- pest or weed control at 250 g/ha ([1]; post-emergence, 360 h, post-emergence, 250 g/ha, 15 DAA, visual score (100%=total damage; 0%=no damage), read-out: ECHCG POST herbicidal activity (percentage phytotoxicity)): 90%
- pest or weed control at 250 g/ha ([1]; pre-emergence, 480 h, pre-emergence, 250 g/ha, 20 DAA, visual score (100%=total damage; 0%=no damage), read-out: ECHCG PRE herbicidal activity (percentage phytotoxicity)): 90%
- pest or weed control at 250 g/ha (Lolium perenne (LOLPE); post-emergence, 360 h, post-emergence, 250 g/ha, 15 DAA, visual score (100%=total damage; 0%=no damage), read-out: LOLPE POST herbicidal activity (percentage phytotoxicity)): 90%
- pest or weed control at 250 g/ha (Lolium perenne (LOLPE); pre-emergence, 480 h, pre-emergence, 250 g/ha, 20 DAA, visual score (100%=total damage; 0%=no damage), read-out: LOLPE PRE herbicidal activity (percentage phytotoxicity)): 100%
- pest or weed control at 250 g/ha (Avena fatua (AVEFA); post-emergence, 360 h, post-emergence, 250 g/ha, 15 DAA, visual score (100%=total damage; 0%=no damage), read-out: AVEFA POST herbicidal activity (percentage phytotoxicity)): 90%
- pest or weed control at 250 g/ha (Avena fatua (AVEFA); pre-emergence, 480 h, pre-emergence, 250 g/ha, 20 DAA, visual score (100%=total damage; 0%=no damage), read-out: AVEFA PRE herbicidal activity (percentage phytotoxicity)): 70%
- pest or weed control at 250 g/ha ([2]; post-emergence, 360 h, post-emergence, 250 g/ha, 15 DAA, visual score (100%=total damage; 0%=no damage), read-out: ALOMY POST herbicidal activity (percentage phytotoxicity)): 80%
- pest or weed control at 250 g/ha ([2]; pre-emergence, 480 h, pre-emergence, 250 g/ha, 20 DAA, visual score (100%=total damage; 0%=no damage), read-out: ALOMY PRE herbicidal activity (percentage phytotoxicity)): 80%

Structure (SMILES): Cc1cc(-c2ncc(Cl)cc2F)cc(C)c1C1C(=O)CC(CC(=O)N2CCOCC2)C1=O (stereo not shown) [Compound B93]
- pest or weed control at 250 g/ha ([1]; post-emergence, 360 h, 250 g/ha, post-emergence, 15 DAA, visual assessment (100%=total damage, 0%=no damage), read-out: Post-emergence herbicidal activity (percentage phytotoxicity) ECHCG POST): 100%
- pest or weed control at 250 g/ha ([1]; pre-emergence, 480 h, 250 g/ha, pre-emergence, 20 DAA, visual assessment (100%=total damage, 0%=no damage), read-out: Pre-emergence herbicidal activity (percentage phytotoxicity) ECHCG PRE): 100%
- pest or weed control at 250 g/ha (Lolium perenne (LOLPE); post-emergence, 360 h, 250 g/ha, post-emergence, 15 DAA, visual assessment (100%=total damage, 0%=no damage), read-out: Post-emergence herbicidal activity (percentage phytotoxicity) LOLPE POST): 100%
- pest or weed control at 250 g/ha (Lolium perenne (LOLPE); pre-emergence, 480 h, 250 g/ha, pre-emergence, 20 DAA, visual assessment (100%=total damage, 0%=no damage), read-out: Pre-emergence herbicidal activity (percentage phytotoxicity) LOLPE PRE): 90%
- pest or weed control at 250 g/ha (Avena fatua (AVEFA); post-emergence, 360 h, 250 g/ha, post-emergence, 15 DAA, visual assessment (100%=total damage, 0%=no damage), read-out: Post-emergence herbicidal activity (percentage phytotoxicity) AVEFA POST): 100%
- pest or weed control at 250 g/ha (Avena fatua (AVEFA); pre-emergence, 480 h, 250 g/ha, pre-emergence, 20 DAA, visual assessment (100%=total damage, 0%=no damage), read-out: Pre-emergence herbicidal activity (percentage phytotoxicity) AVEFA PRE): 70%
- pest or weed control at 250 g/ha ([2]; post-emergence, 360 h, 250 g/ha, post-emergence, 15 DAA, visual assessment (100%=total damage, 0%=no damage), read-out: Post-emergence herbicidal activity (percentage phytotoxicity) ALOMY POST): 100%
- pest or weed control at 250 g/ha ([2]; pre-emergence, 480 h, 250 g/ha, pre-emergence, 20 DAA, visual assessment (100%=total damage, 0%=no damage), read-out: Pre-emergence herbicidal activity (percentage phytotoxicity) ALOMY PRE): 80%

Structure (SMILES): C=C(F)CNC(=O)CC1CC(=O)C(c2c(C)cc(-c3ncc(F)cn3)cc2C)C1=O (stereo not shown) [Compound B294]
- pest or weed control at 250 g/ha ([1]; post-emergence, 360 h, POST-emergence, rate 250 g/ha, visual score 15 DAA (100%=total damage, 0%=no damage), read-out: Post-emergence herbicidal activity (percentage phytotoxicity) ECHCG POST): 100%
- pest or weed control at 250 g/ha ([1]; pre-emergence, 480 h, PRE-emergence, rate 250 g/ha, visual score 20 DAA (100%=total damage, 0%=no damage), read-out: Pre-emergence herbicidal activity (percentage phytotoxicity) ECHCG PRE): 100%
- pest or weed control at 250 g/ha (Lolium perenne (LOLPE); post-emergence, 360 h, POST-emergence, rate 250 g/ha, visual score 15 DAA (100%=total damage, 0%=no damage), read-out: Post-emergence herbicidal activity (percentage phytotoxicity) LOLPE POST): 100%
- pest or weed control at 250 g/ha (Lolium perenne (LOLPE); pre-emergence, 480 h, PRE-emergence, rate 250 g/ha, visual score 20 DAA (100%=total damage, 0%=no damage), read-out: Pre-emergence herbicidal activity (percentage phytotoxicity) LOLPE PRE): 100%
- pest or weed control at 250 g/ha (Avena fatua (AVEFA); post-emergence, 360 h, POST-emergence, rate 250 g/ha, visual score 15 DAA (100%=total damage, 0%=no damage), read-out: Post-emergence herbicidal activity (percentage phytotoxicity) AVEFA POST): 100%
- pest or weed control at 250 g/ha (Avena fatua (AVEFA); pre-emergence, 480 h, PRE-emergence, rate 250 g/ha, visual score 20 DAA (100%=total damage, 0%=no damage), read-out: Pre-emergence herbicidal activity (percentage phytotoxicity) AVEFA PRE): 100%
- pest or weed control at 250 g/ha ([2]; post-emergence, 360 h, POST-emergence, rate 250 g/ha, visual score 15 DAA (100%=total damage, 0%=no damage), read-out: Post-emergence herbicidal activity (percentage phytotoxicity) ALOMY POST): 100%
- pest or weed control at 250 g/ha ([2]; pre-emergence, 480 h, PRE-emergence, rate 250 g/ha, visual score 20 DAA (100%=total damage, 0%=no damage), read-out: Pre-emergence herbicidal activity (percentage phytotoxicity) ALOMY PRE): 90%

Structure (SMILES): Cc1cccc(CNC(=O)CC2CC(=O)C(c3c(C)cc(-c4ncc(Cl)cc4F)cc3C)C2=O)c1 (stereo not shown) [Compound A119]
- pest or weed control at 250 g/ha ([1]; post-emergence, 360 h, Rate 250 g/ha, post-emergence, assessed visually 15 DAA, 100%=total damage, 0%=no damage, read-out: Post-emergence herbicidal activity (percentage phytotoxicity) ECHCG POST): 100%
- pest or weed control at 250 g/ha ([1]; pre-emergence, 480 h, Rate 250 g/ha, pre-emergence, assessed visually 20 DAA, 100%=total damage, 0%=no damage, read-out: Pre-emergence herbicidal activity (percentage phytotoxicity) ECHCG PRE): 100%
- pest or weed control at 250 g/ha (Lolium perenne (LOLPE); post-emergence, 360 h, Rate 250 g/ha, post-emergence, assessed visually 15 DAA, 100%=total damage, 0%=no damage, read-out: Post-emergence herbicidal activity (percentage phytotoxicity) LOLPE POST): 90%
- pest or weed control at 250 g/ha (Lolium perenne (LOLPE); pre-emergence, 480 h, Rate 250 g/ha, pre-emergence, assessed visually 20 DAA, 100%=total damage, 0%=no damage, read-out: Pre-emergence herbicidal activity (percentage phytotoxicity) LOLPE PRE): 70%
- pest or weed control at 250 g/ha (Avena fatua (AVEFA); post-emergence, 360 h, Rate 250 g/ha, post-emergence, assessed visually 15 DAA, 100%=total damage, 0%=no damage, read-out: Post-emergence herbicidal activity (percentage phytotoxicity) AVEFA POST): 90%
- pest or weed control at 250 g/ha (Avena fatua (AVEFA); pre-emergence, 480 h, Rate 250 g/ha, pre-emergence, assessed visually 20 DAA, 100%=total damage, 0%=no damage, read-out: Pre-emergence herbicidal activity (percentage phytotoxicity) AVEFA PRE): 60%
- pest or weed control at 250 g/ha ([2]; post-emergence, 360 h, Rate 250 g/ha, post-emergence, assessed visually 15 DAA, 100%=total damage, 0%=no damage, read-out: Post-emergence herbicidal activity (percentage phytotoxicity) ALOMY POST): 60%
- pest or weed control at 250 g/ha ([2]; pre-emergence, 480 h, Rate 250 g/ha, pre-emergence, assessed visually 20 DAA, 100%=total damage, 0%=no damage, read-out: Pre-emergence herbicidal activity (percentage phytotoxicity) ALOMY PRE): 40%
